Measured values reported in US20100267561A1, “HERBICIDAL PYRIDAZINONE DERIVATIVES” (priority 2007, published 2010).

Key:
Test in all cases: Test B pre-/postemergence plant response
Assay type in all cases: in vivo
corn (Zea mays) = test system: corn (Zea mays)
Excerpt: (§1) Seeds of plant species selected from blackgrass (Alopecurus myosuroides), downy bromegrass (Bromus tectorum), green foxtail (Setaria viridis), Italian ryegrass (Lolium multiflorum), wheat (Triticum aestivum), wild oat (Avena fatua), catchweed bedstraw (Galium aparine), bermudagrass (Cynodon dactylon), surinam grass (Brachiaria decumbens), cocklebur (Xanthium strumarium), corn (Zea mays), large crabgrass (Digitaria sanguinalis), woolly cupgrass (Eriochloa villosa), giant foxtail (Setaria faberii), goosegrass (Eleusine indica), johnsongrass (Sorghum halepense), kochia (Kochia scoparia), lambsquarters (Chenopodium album), morningglory (Ipomoea coccinea), eastern black (E.B.) nightshade (Solanum ptycanthum), yellow nutsedge (Cyperus esculentus), pigweed (Amaranthus retroflexus), common ragweed (Ambrosia elation), Russian thistle (Salsola iberica), soybean (Glycine max), common (oilseed) sunflower (Helianthus annuus), and velvetleaf (Abutilon theophrasti) were planted and treated preemergence with test chemicals formulated in a non-phytotoxic solvent mixture which included a surfactant.
(§2) At the same time, plants selected from these crop and weed species and also winter barley (Hordeum vulgare), canarygrass (Phalaris minor), chickweed (Stellaria media) and windgrass (Apera spica-venti) were treated with postemergence applications of some of the test chemicals formulated in the same manner. Plants ranged in height from 2 to 18 cm (1- to 4-leaf stage) for postemergence treatments.
(§3) Plant species in the flooded paddy test consisted of rice (Oryza sativa), umbrella sedge (Cyperus difformis), ducksalad (Heteranthera limosa) and barnyardgrass (Echinochloa crus-galli) grown to the 2-leaf stage for testing. At time of treatment, test pots were flooded to 3 cm above the soil surface, treated by application of test compounds directly to the paddy water, and then maintained at that water depth for the duration of the test. Treated plants and controls were maintained in a greenhouse for 13 to 15 days, after which time all species were compared to controls and visually evaluated. Plant response ratings, summarized in Table B, are based on a scale of 0 to 100 where 0 is no effect and 100 is complete control. A dash (-) response means no test result.

[1] = test system: velvetleaf (Abutilon theophrasti)
Excerpt: as §1, §2, §3

[2] = test system: downy bromegrass (Bromus tectorum)
Excerpt: as §1, §2, §3

[3] = test system: blackgrass (Alopecurus myosuroides)
Excerpt: as §1, §2, §3

[4] = test system: common ragweed (Ambrosia elation)
Excerpt: as §1, §2, §3

[5] = test system: catchweed bedstraw (Galium aparine); conditions: Preemergence
Excerpt: as §1, §2, §3

[6] = test system: pigweed (Amaranthus retroflexus)
Excerpt: as §1, §2, §3

[7] = test system: common (oilseed) sunflower (Helianthus annuus); conditions: Preemergence
Excerpt: as §1, §2, §3

[8] = test system: lambsquarters (Chenopodium album)
Excerpt: as §1, §2, §3

[9] = test system: giant foxtail (Setaria faberii)
Excerpt: as §1, §2, §3

wild oat (Avena fatua) = test system: wild oat (Avena fatua)
Excerpt: as §1, §2, §3

[10] = test system: woolly cupgrass (Eriochloa villosa)
Excerpt: as §1, §2, §3

[11] = test system: yellow nutsedge (Cyperus esculentus)
Excerpt: as §1, §2, §3

kochia (Kochia scoparia) = test system: kochia (Kochia scoparia)
Excerpt: as §1, §2, §3

[12] = 8 g ai/ha, postemergence, 0-100 scale
[13] = 16 g ai/ha, postemergence, 0-100 scale
[14] = Postemergence, 31 g ai/ha, scale 0 to 100
[15] = Postemergence, 62 g ai/ha, scale 0 to 100, 0 no effect, 100 complete control
[16] = Preemergence, 8 g ai/ha, scale 0 to 100 (0 no effect, 100 complete control)
[17] = Preemergence, 31 g ai/ha, scale 0 to 100 (0 no effect, 100 complete control)
[18] = Preemergence, 62 g ai/ha, 0 to 100 scale, 0 no effect, 100 complete control
[19] = Preemergence, 16 g ai/ha, scale 0 to 100
[20] = 8 g ai/ha, scale 0 to 100 (0 no effect, 100 complete control)
[21] = 31 g ai/ha, scale 0 to 100 (0 no effect, 100 complete control)
[22] = 62 g ai/ha, 0 to 100 scale, 0 no effect, 100 complete control

With CCc1c(C)c(-c2ccc(Br)cc2)nn1-c1c(O)cnn(C)c1=O [Compound 83] the “Corn plant response rating” value (corn (Zea mays); [12]) was 65, the “Corn plant response rating” value (corn (Zea mays); [13]) was 95 and the “Plant response rating, Corn” value (corn (Zea mays); [14]) was 98. The “Plant response rating, Corn” value (corn (Zea mays); [15]) was 100, the “Corn plant response rating” value (corn (Zea mays); [16]) was 0 and the “Plant response rating, Corn” value (corn (Zea mays); [17]) was 95. For the same compound, the “Plant response rating, Corn” value (corn (Zea mays); [18]) was 95, the “Corn plant response rating” value (corn (Zea mays); [19]) was 45 and the “Velvetleaf plant response rating” value [1, 12] was 0. The “Velvetleaf plant response rating” value [1, 13] was 0, the “Plant response rating, Velvetleaf” value [1, 14] was 0 and the “Plant response rating, Velvetleaf” value [1, 15] was 20. The “Velvetleaf plant response rating” value [1, 16] was 0, the “Plant response rating, Velvetleaf” value [1, 17] was 0 and the “Plant response rating, Velvetleaf” value [1, 18] was 0. The “Velvetleaf plant response rating” value [1, 19] was 0, the “Bromegrass, Downy plant response rating” value [2, 12] was 10 and the “Bromegrass, Downy plant response rating” value [2, 13] was 55. For the same compound, the “Plant response rating, Bromegrass, Downy” value [2, 14] was 75, the “Plant response rating, Bromegrass, Downy” value [2, 15] was 85 and the “Bromegrass, Downy plant response rating” value [2, 16] was 0. The “Plant response rating, Bromegrass, Downy” value [2, 17] was 20, the “Plant response rating, Bromegrass, Downy” value [2, 18] was 30 and the “Bromegrass, Downy plant response rating” value [2, 19] was 0. The “Blackgrass plant response rating” value [3, 12] was 70, the “Blackgrass plant response rating” value [3, 13] was 95 and the “Plant response rating, Blackgrass” value [3, 14] was 95. For the same compound, the “Plant response rating, Blackgrass” value [3, 15] was 100, the “Blackgrass plant response rating” value [3, 16] was 0 and the “Plant response rating, Blackgrass” value [3, 17] was 80. The “Plant response rating, Blackgrass” value [3, 18] was 98, the “Blackgrass plant response rating” value [3, 19] was 30 and the “Ragweed plant response rating” value [4, 12] was 0. The “Ragweed plant response rating” value [4, 13] was 0, the “Plant response rating, Ragweed” value [4, 14] was 0 and the “Plant response rating, Ragweed” value [4, 15] was 0. The “Ragweed plant response rating” value [4, 16] was 0, the “Plant response rating, Ragweed” value [4, 17] was 0 and the “Plant response rating, Ragweed” value [4, 18] was 0. For the same compound, the “Ragweed plant response rating” value [4, 19] was 0, the “Galium plant response rating” value [5, 20] was 0 and the “Plant response rating, Galium” value [5, 21] was 0. The “Plant response rating, Galium” value [5, 22] was 0, the “Galium plant response rating” value ([5]; 16 g ai/ha, scale 0 to 100) was 0 and the “Pigweed plant response rating” value [6, 12] was 0. For the same compound, the “Pigweed plant response rating” value [6, 13] was 0, the “Plant response rating, Pigweed” value [6, 14] was 0 and the “Plant response rating, Pigweed” value [6, 15] was 20. For the same compound, the “Pigweed plant response rating” value [6, 16] was 0, the “Plant response rating, Pigweed” value [6, 17] was 0 and the “Plant response rating, Pigweed” value [6, 18] was 0. For the same compound, the “Pigweed plant response rating” value [6, 19] was 0, the “Sunflower plant response rating” value [7, 20] was 0 and the “Plant response rating, Sunflower” value [7, 21] was 0. The “Plant response rating, Sunflower” value [7, 22] was 0, the “Sunflower plant response rating” value ([7]; 16 g ai/ha, scale 0 to 100) was 0 and the “Lambsquarters plant response rating” value [8, 12] was 0. For the same compound, the “Lambsquarters plant response rating” value [8, 13] was 0, the “Plant response rating, Lambsquarters” value [8, 14] was 0 and the “Plant response rating, Lambsquarters” value [8, 15] was 0. The “Lambsquarters plant response rating” value [8, 16] was 100, the “Plant response rating, Lambsquarters” value [8, 17] was 100 and the “Plant response rating, Lambsquarters” value [8, 18] was 100. The “Lambsquarters plant response rating” value [8, 19] was 100, the “Foxtail, Giant plant response rating” value [9, 12] was 80 and the “Foxtail, Giant plant response rating” value [9, 13] was 90. For the same compound, the “Plant response rating, Foxtail, Giant” value [9, 14] was 100, the “Plant response rating, Foxtail, Giant” value [9, 15] was 100 and the “Foxtail, Giant plant response rating” value [9, 16] was 80. The “Plant response rating, Foxtail, Giant” value [9, 17] was 100, the “Plant response rating, Foxtail, Giant” value [9, 18] was 100 and the “Foxtail, Giant plant response rating” value [9, 19] was 100. For the same compound, the “Oat, Wild plant response rating” value (wild oat (Avena fatua); [12]) was 98, the “Oat, Wild plant response rating” value (wild oat (Avena fatua); [13]) was 100 and the “Plant response rating, Oat, Wild” value (wild oat (Avena fatua); [14]) was 100. The “Plant response rating, Oat, Wild” value (wild oat (Avena fatua); [15]) was 100, the “Oat, Wild plant response rating” value (wild oat (Avena fatua); [16]) was 0 and the “Plant response rating, Oat, Wild” value (wild oat (Avena fatua); [17]) was 80. For the same compound, the “Plant response rating, Oat, Wild” value (wild oat (Avena fatua); [18]) was 85, the “Oat, Wild plant response rating” value (wild oat (Avena fatua); [19]) was 30 and the “Cupgrass, Woolly plant response rating” value [10, 12] was 65. For the same compound, the “Cupgrass, Woolly plant response rating” value [10, 13] was 95, the “Plant response rating, Cupgrass, Woolly” value [10, 14] was 98 and the “Plant response rating, Cupgrass, Woolly” value [10, 15] was 100. The “Cupgrass, Woolly plant response rating” value [10, 16] was 65, the “Plant response rating, Cupgrass, Woolly” value [10, 17] was 100 and the “Plant response rating, Cupgrass, Woolly” value [10, 18] was 100. For the same compound, the “Cupgrass, Woolly plant response rating” value [10, 19] was 90, the “Nutsedge, Yellow plant response rating” value [11, 12] was 0 and the “Nutsedge, Yellow plant response rating” value [11, 13] was 0. The “Plant response rating, Nutsedge, Yellow” value [11, 14] was 0, the “Plant response rating, Nutsedge, Yellow” value [11, 15] was 0 and the “Nutsedge, Yellow plant response rating” value [11, 16] was 0. The “Plant response rating, Nutsedge, Yellow” value [11, 17] was 0, the “Plant response rating, Nutsedge, Yellow” value [11, 18] was 0 and the “Nutsedge, Yellow plant response rating” value [11, 19] was 0. For the same compound, the “Kochia plant response rating” value (kochia (Kochia scoparia); [12]) was 0, the “Kochia plant response rating” value (kochia (Kochia scoparia); [13]) was 0 and the “Plant response rating, Kochia” value (kochia (Kochia scoparia); [14]) was 0. For the same compound, the “Plant response rating, Kochia” value (kochia (Kochia scoparia); [15]) was 0, the “Kochia plant response rating” value (kochia (Kochia scoparia); [16]) was 50 and the “Plant response rating, Kochia” value (kochia (Kochia scoparia); [17]) was 100. The “Plant response rating, Kochia” value (kochia (Kochia scoparia); [18]) was 100 and the “Kochia plant response rating” value (kochia (Kochia scoparia); [19]) was 100.
